Laboratory results as given in US20260344668A1, “PHENYLPYRAZOLE COMPOUND, AND PLANT DISEASE CONTROL METHOD” (priority 2022, published 2026).

Tests used:
[1] = system: soybean rust fungus (Phakopsora pachyrhizi) having an amino acid substitution of F129L in a mitochondrial cytochrome b protein; assay: Test Example 7 Control Test Against Soybean Rust (leaf disk); type: in vivo; details: 200 ppm, 10 μL per soybean leaf disk (cultivar: Kurosengoku), inoculated after 1 day
Method: (§1) The term of “non-treated well” in Test Example 4, Test Example 5, and Test Example 6 represents a well wherein a test was carried out under the same conditions as those described in each Test Example except for dispensing DMSO instead of a diluted solution with DMSO comprising the Present compound. Also, the term of “non-treated” in Test Examples 15 to 17 represents a test which was carried out under the same conditions as those described in each Test Example except for dispensing DMSO instead of a diluted solution with DMSO comprising the Present compound. Also, the term of “non-treated leaf disk” in Test Example 7 represents a leaf disk wherein a test was carried out under the same conditions as those described in the Test Example except for dispensing DMSO instead of a diluted solution with DMSO comprising the Present compound. Also, the term of “non-treated” in Test Example 10 and Test Example 11 means that a diluted solution with water of a formulation comprising the Present compound was not sprayed.
A true leaf of a soybean (cultivar: Kurosengoku) was cut into a diameter of 1 cm to prepare each leaf disk. To each well of a 24 well microplate was dispensed 1 mL of an agar medium (agar concentration 1.2%), and then one of said leaf disk was placed on the agar medium in each well. To a mixture of Sorpol (registered trademark) 1200KX (0.5 μL), DMSO (4.5 μL), and xylene (5 μL) was added a DMSO solution (20 μL) comprising a test compound (10000 ppm), and the resulting mixture was mixed. The resulting mixture was diluted with ion exchange water to prepare a mixture comprising a prescribed concentration of the test compound.
The resulting mixture was sprayed into each leaf disk at a ratio of 10 μL per leaf disk. After 1 day, an aqueous suspension of spores of soybean rust fungus (Phakopsora pachyrhizi) having an amino acid substitution of F129L in a mitochondrial cytochrome b protein (1.0×10^5/mL) was inoculated by spraying on each leaf disk. After the inoculation, the microplate was placed into an artificial climate chamber (Lighting: 6 hours, Lights-out: 18 hours, Temperature: 23° C., Humidity: 60%). After 1 day, the leaf disks were air-dried until water droplets on the surfaces of the leaf disks disappeared, and the microplate was placed into the artificial climate chamber again for 12 days. Then, lesion area of soybean rust was investigated. As a result, when the prescribed concentration was 200 ppm, each lesion area of leaf disk treated with any one of the Present compound 9, 10, 11, 13, 14, 15, 16, 17, 18, 20, 32, 33, 34, 35, 36, 37, 38, 39, 40, 42, 43, 44, 47, 48, 49, 50, 51, 52, 53, 55, 56, 57, 58, 62, 63, 64, 65, 66, 67, 68, 69, 70, 71, 73, 74, 75, 76, 77, 78, 79, 80, 81, 82, 83, 84, 85, 86, 87, 88, 89, 90, 91, 92, 93, 94, 95, 96, 97, 98, 99, 100, 101, or 102 as the test compound was 30% or less relative to the lesion area of non-treated leaf disk.

Phakopsora pachyrhizi [2] = assay: Test Example 11 Control Test Against Soybean Rust (pot test, spraying before inoculation); type: in vivo; details: 200 ppm foliage spray, soybeans (Kurosengoku), inoculated after 2 to 5 days
Method: as §1
A plastic pot was filled with soil, soybeans (cultivar: Kurosengoku) were seeded thereto, and cultured in a greenhouse for 10 to 14 days. The Present compound 9, 10, 11, 13, 14, 15, 17, 18, 20, 21, 22, 23, 26, 27, 33, 34, 35, 36, 37, 38, 39, 40, 41, 42, 43, 44, 46, 47, 53, 54, 55, 56, 57, 58, 66, 67, 68, 69, 70, 71, 73, 74, 75, 76, 77, 78, 79, 80, 81, 82, 83, 84, 85, 86, 87, 88, 89, 90, 91, 92, 93, 94, 95, 96, 97, 98, 99, 100, 101, or 102 formulated according to the method described in the Formulation Example 1 was mixed with water in such a way that the concentration thereof was 200 ppm, and the resulting mixture was sprayed to foliage of the above soybeans so as to adequately adhere onto the surfaces of leaves of the above soybeans. After spraying the mixture, the soybeans were air-dried. After 2 to 5 days, an aqueous suspension of spores of Phakopsora pachyrhizi was inoculated by spraying to the soybeans. After the inoculation, the soybeans were placed in a greenhouse at 23° C. in daytime and at 20° C. in nighttime under a humid condition for 1 to 2 day(s), then cultured in a greenhouse for 12 days, and then a lesion area was investigated. As a result, the lesion area in the soybeans treated with each of the above Present compound was 30% or less relative to the lesion area in the non-treated soybeans.

Phakopsora pachyrhizi [3] = assay: Test Example 15 Control Test Against Soybean Rust Fungus (spore germination, 96 well titer plate); type: cell-based; details: treatment concentration 1 ppm, 23° C., several hours
Method: as §1
The Present compound was diluted with DMSO to obtain a diluted solution containing 150 ppm of the compound, and 1 μL of the diluted solution was dispensed into a titer plate (96 well), and thereto was then dispensed 149 μL of an aqueous suspension (1.0×10^4/mL) of spores of Phakopsora pachyrhizi to which spores of Phakopsora pachyrhizi were suspended in advance. This plate was cultured at 23° C. for several hours, and then germinated spores of Phakopsora pachyrhizi were counted. As a result, when the treatment concentration was 1 ppm, the number of germinated spores in each well comprising any one of the Present compound 1, 11, 17, 18, 20, 23, 30, 33, 34, 35, 36, 37, 38, 39, 40, 41, 42, 43, 44, 46, 47, 48, 49, 50, 51, 52, 53, 54, 55, 56, 57, 58, 62, 63, 64, 65, 66, 67, 68, 69, 70, 71, 72, 73, 74, 75, 76, 77, 78, 79, 80, 81, 82, 83, 84, 85, 86, 87, 88, 89, 90, 91, 92, 93, 94, 95, 96, 97, 98, 99, 100, 101, or 102 as the test compound was 50% or less relative to the number of germinated spores in the non-treated well.

| SMILES | lesion area relative to the lesion area of non-treated leaf disk [1] | lesion area relative to the lesion area in the non-treated soybeans (Phakopsora pachyrhizi [2]) | number of germinated spores relative to the non-treated well (Phakopsora pachyrhizi [3]) |
| --- | --- | --- | --- |
| O=S(=O)(c1ccccc1Cl)n1ccc(-c2cc(F)c(Br)c(F)c2)n1 [compound 11] | ≤ 30% | ≤ 30% | ≤ 50% |
| O=S(=O)(c1cccnc1)n1ccc(-c2ccc(F)cc2)n1 [compound 57] | ≤ 30% | ≤ 30% | ≤ 50% |
| O=S(=O)(c1cccs1)n1ccc(-c2cc(F)cc(F)c2)n1 [compound 75] | ≤ 30% | ≤ 30% | ≤ 50% |
| COc1ccc(-c2ccn(S(=O)(=O)c3cccnc3)n2)cc1 [compound 58] | ≤ 30% | ≤ 30% | ≤ 50% |
| O=S(=O)(c1ccco1)n1ccc(-c2cc(F)cc(F)c2)n1 [compound 73] | ≤ 30% | ≤ 30% | ≤ 50% |
| O=S(=O)(c1cccs1)n1ccc(-c2ccc3ocnc3c2)n1 [compound 67] | ≤ 30% | ≤ 30% | ≤ 50% |
| O=S(=O)(c1ccoc1)n1ccc(-c2cccc(F)c2)n1 [compound 95] | ≤ 30% | ≤ 30% | ≤ 50% |
| O=S(=O)(c1cccnc1)n1ccc(-c2ccc(F)c(F)c2)n1 [compound 101] | ≤ 30% | ≤ 30% | ≤ 50% |
| O=S(=O)(c1ccoc1)n1ccc(-c2ccccc2)n1 [compound 86] | ≤ 30% | ≤ 30% | ≤ 50% |
| O=S(=O)(c1ccc(Cl)s1)n1ccc(-c2cc(F)c(Br)c(F)c2)n1 [compound 47] | ≤ 30% | ≤ 30% | ≤ 50% |
| O=S(=O)(c1cccnc1)n1ccc(-c2cccc(F)c2)n1 [compound 56] | ≤ 30% | ≤ 30% | ≤ 50% |
| O=S(=O)(c1cccs1)n1ccc(-c2ccccc2)n1 [compound 87] | ≤ 30% | ≤ 30% | ≤ 50% |
| O=S(=O)(c1cccc(Cl)c1)n1ccc(-c2cc(F)c(Br)c(F)c2)n1 [compound 18] | ≤ 30% | ≤ 30% | ≤ 50% |
